In ChEMBL document CHEMBL5661980, “Discovery of OSI-906: a selective and orally efficacious dual inhibitor of the IGF-1 receptor and insulin receptor” (Future Med Chem, 2009):

Key:
[1] = In vivo inhibition of IGF-1R phosphorylation in athymic nu/nu CD-1 mouse allografted with mouse 3T3 cells expressing human IGF-1R at 75 mg/kg, po measured after 4 to 24 hrs relative to control; assay type: functional; conditions: nu/nu CD-1, NIH3T3, time 4-24 hrs
[2] = Clearance in Beagle dog measured at 2.5 mg/kg, iv for 1 to 24 hrs by HPLC-MS/MS analysis; assay type: ADME, organism-based, Canis lupus familiaris; conditions: in vivo, time 1-24 hrs
[3] = AUC last in CD-1 mouse measured at 250 mg/kg, po for 1 to 24 hrs by HPLC-MS/MS analysis; assay type: ADME, organism-based; conditions: in vivo, time 1-24 hrs
[4] = Cmax in CD-1 mouse measured at 25 mg/kg, po for 1 to 24 hrs by HPLC-MS/MS analysis; assay type: ADME, organism-based; conditions: in vivo, time 1-24 hrs
NIH3T3 = assay: Antitumor activity against mouse 3T3 cells allografted in athymic nu/nu CD-1 mouse assessed as tumor growth inhibition at 75 mg/kg, po for 12 days relative to control; assay type: functional; conditions: NIH3T3, 288 h, time 12 day, read-out: TGI
[5] = Cmax in Sprague-Dawley rat measured at 100 mg/kg, po for 1 to 24 hrs by HPLC-MS/MS analysis; assay type: ADME, organism-based; conditions: in vivo, time 1-24 hrs
[6] = Plasma concentration in athymic nu/nu CD-1 mouse allografted with mouse 3T3 cells expressing human IGF-1R at 75 mg/kg, po measured after 24 hrs; assay type: ADME, organism-based, NIH3T3
[7] = AUC last in Beagle dog measured at 5 mg/kg, po for 1 to 24 hrs by HPLC-MS/MS analysis; assay type: ADME, organism-based, Canis lupus familiaris; conditions: in vivo, time 1-24 hrs
[8] = Volume of distribution at steady state in Sprague-Dawley rat measured at 5 mg/kg, iv for 1 to 24 hrs by HPLC-MS/MS analysis; assay type: ADME, organism-based; conditions: in vivo, time 1-24 hrs, read-out: Vdss
Cytochrome P450 3A4 = Cytochrome P450 3A4 (Homo sapiens, UniProt P08684); assay: Inhibition of CYP3A4 (unknown origin) using luciferin as substrate in presence of NADPH generating system incubated for 20 mins by luminescent method; assay type: ADME
Cytochrome P450 3A4, sequence (P08684 whole entry): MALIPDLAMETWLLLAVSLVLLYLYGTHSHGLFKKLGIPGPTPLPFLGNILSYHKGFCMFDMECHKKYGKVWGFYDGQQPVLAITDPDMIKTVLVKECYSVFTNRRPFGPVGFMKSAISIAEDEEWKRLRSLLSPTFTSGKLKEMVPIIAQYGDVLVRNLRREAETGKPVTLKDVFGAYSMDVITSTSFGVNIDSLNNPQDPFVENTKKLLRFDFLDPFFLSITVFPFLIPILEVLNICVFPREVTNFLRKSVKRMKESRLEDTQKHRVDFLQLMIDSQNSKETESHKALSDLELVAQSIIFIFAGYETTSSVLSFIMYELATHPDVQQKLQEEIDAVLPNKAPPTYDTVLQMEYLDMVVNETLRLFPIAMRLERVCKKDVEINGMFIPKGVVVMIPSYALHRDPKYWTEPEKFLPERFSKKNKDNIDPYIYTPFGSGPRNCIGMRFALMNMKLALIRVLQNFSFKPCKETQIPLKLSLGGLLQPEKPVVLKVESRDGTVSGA

[9] = AUC last in CD-1 mouse measured at 5 mg/kg, po for 1 to 24 hrs by HPLC-MS/MS analysis; assay type: ADME, organism-based; conditions: in vivo, time 1-24 hrs
[10] = Elimination half life in Sprague-Dawley rat measured at 5 mg/kg, iv for 1 to 24 hrs by HPLC-MS/MS analysis; assay type: ADME, organism-based; conditions: in vivo, time 1-24 hrs, read-out: beta t1/2 (converted)
[11] = Cmax in CD-1 mouse measured at 75 mg/kg, po for 1 to 24 hrs by HPLC-MS/MS analysis; assay type: ADME, organism-based; conditions: in vivo, time 1-24 hrs
[12] = Oral bioavailability in CD-1 mouse measured at 25 mg/kg for 1 to 24 hrs by HPLC-MS/MS analysis; assay type: ADME, organism-based; conditions: in vivo, time 1-24 hrs
[13] = Elimination half life in CD-1 mouse measured at 5 mg/kg, iv for 1 to 24 hrs by HPLC-MS/MS analysis; assay type: ADME, organism-based; conditions: in vivo, time 1-24 hrs, read-out: beta t1/2 (converted)

clearance [2]: 39 mL/min/kg
AUC(0-t) [3]: 317000 ng·h/mL
Cmax [4]: 16 µM
Cmax [5]: 34.6 µM
concentration at 24 h [6]: 4.77 µM
AUC(0-t) [7]: 1330 ng·h/mL
Vd [8]: 0.79 L/kg
IC50 (Cytochrome P450 3A4): > 10 µM
AUC(0-t) [9]: 6770 ng·h/mL
half-life [10]: 2.64 h
Cmax [11]: 16.8 µM
bioavailability [12]: 100%
half-life [13]: 2.14 h
SMILES: C[C@]1(O)C[C@@H](c2nc(-c3ccc4ccc(-c5ccccc5)nc4c3)c3c(N)nccn32)C1 [LINSITINIB]
inhibition in vivo at 75 mg/kg [1]: 80%
inhibition in vivo at 75 mg/kg (NIH3T3): 100%
